In the supplement of paper PMC10307832:

Experiments:
Assay in all cases: relative viability (nuclei count vs DMSO), 5 days (fraction); higher = more cells survive
Axitinib + OSI-027 = compound: CNC(=O)c1ccccc1Sc1ccc2c(/C=C/c3ccccn3)n[nH]c2c1 [Axitinib] + COc1cccc2cc(-c3nc([C@H]4CC[C@H](C(=O)O)CC4)n4ncnc(N)c34)[nH]c12 [OSI-027] (partner 0.5 µM)
Procedure, shortened: (§1)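 Values are medians from duplicate plates. Each reflects relative viability, defined as the nuclei count of treated wells over that of vehicle wells. Lung cancer cell lines in 1536-well plates were pin-tool dosed one day after seeding with one drug alone or with a fixed anchor-drug dose plus five library-drug doses (not always all listed) in √10 steps, then fixed, stained and imaged at 4× after 5 days.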

[1] = compound: CC1=CC=C(C=C1)C(=O)CN2C3=C(CCCC3)SC2=N [Pifithrin_alpha] + COc1cccc2cc(-c3nc([C@H]4CC[C@H](C(=O)O)CC4)n4ncnc(N)c34)[nH]c12 [OSI-027] (partner 0.5 µM)
Procedure, shortened: as §1

Bemcentinib + Alpelisib = compound: Nc1nc(Nc2ccc3c(c2)CC[C@@H](N2CCCC2)CC3)nn1-c1cc2c(nn1)-c1ccccc1CCC2 [Bemcentinib] + Cc1nc(NC(=O)N2CCC[C@H]2C(N)=O)sc1-c1ccnc(C(C)(C)C(F)(F)F)c1 [Alpelisib] (partner 2 µM)
Procedure, shortened: as §1

[2] = compound: CC1=CC=C(C=C1)C(=O)CN2C3=C(CCCC3)SC2=N [Pifithrin_alpha] + O=C(CCCCCCC(=O)Nc1ccccc1)NO [Vorinostat] (partner 1 µM)
Procedure, shortened: as §1

Cell Line	relative viability (Axitinib + OSI-027; first compound 0.005 µM)	relative viability (Axitinib + OSI-027; first compound 0.01581 µM)	relative viability (Axitinib + OSI-027; first compound 0.05 µM)	relative viability (Axitinib + OSI-027; first compound 0.1581 µM)	relative viability (Axitinib + OSI-027; first compound 0.5 µM)	relative viability ([1]; first compound 3.162 µM)	relative viability ([1]; first compound 10 µM)	relative viability ([1]; first compound 31.62 µM)	relative viability ([1]; first compound 100 µM)	relative viability (Bemcentinib + Alpelisib; first compound 0.04 µM)	relative viability (Bemcentinib + Alpelisib; first compound 0.1265 µM)	relative viability (Bemcentinib + Alpelisib; first compound 0.4 µM)	relative viability (Bemcentinib + Alpelisib; first compound 1.265 µM)	relative viability (Bemcentinib + Alpelisib; first compound 4 µM)	relative viability ([2]; first compound 1 µM)	relative viability ([2]; first compound 3.162 µM)	relative viability ([2]; first compound 10 µM)	relative viability ([2]; first compound 31.62 µM)	relative viability ([2]; first compound 100 µM)	relative viability ([1]; first compound 1 µM)
NCI-H1793	0.348	0.198	0.349	0.289	0.312	0.249	0.201	0.218	0.198	0.684	0.927	0.691	0.742	0.66	0.674	0.571	0.655	0.753	0.46	
HCC-78	0.365	0.335	0.358	0.362	0.356	0.388	0.34	0.326	0.349	0.246	0.322	0.336	0.39	0.33		0.506	0.519	0.407	0.467	0.349
NCI-H322M	0.569	0.575	0.546	0.536	0.601	0.531	0.503	0.419	0.508	0.897	0.864	0.855	0.85	0.937	0.807	0.811	0.802	0.788	0.845	0.536
COR-L23	0.88	0.775	0.804	0.75	1.19	0.822	0.616		0.613	0.874	0.778	0.965	0.9	0.904	0.42	0.349	0.361		0.344	0.843
201T	0.735	0.675	0.502	0.706	0.679	0.542	0.524	0.439	0.467	1.01	0.987	1.03	1.08	1.04	0.529	0.948	0.757	0.666	0.711	0.453
NCI-H2347	0.482	0.407	0.422	0.423	0.51	0.467	0.431	0.328	0.367	1.14	1.08	1.07	1.1	0.974	0.541	0.533	0.685	0.459	0.536	0.467
LCLC-97TM1	0.589	0.51	0.427	0.48	0.475	0.689	0.631	0.252	0.6	0.313	0.226		0.289	0.265		0.857	0.852		0.726	0.706
NCI-H2126	0.685	0.766	0.733	0.643	0.667	0.671	0.594	0.658	0.563	0.799	0.772	0.669	0.768	0.786	0.433	0.719	0.738	0.716	0.763	
NCI-H1944	0.389	0.404	0.42	0.424	0.392	0.362	0.351	0.252	0.293	0.825	0.821	0.898	0.871	0.846	0.503	0.572	0.505	0.351	0.395	0.346
HCC-15	0.725	0.679	0.689	0.65	0.623	0.61	0.611	0.376	0.485	0.886	0.945	0.97	0.92	0.889	0.871	0.833	0.8	0.676	0.646	0.503
NCI-H2405	0.654	0.666	0.675	0.643	0.722	0.639	0.583	0.58	0.579	0.728	0.732	0.847	0.756	0.72		0.931	0.743	0.734	0.785	0.494
COR-L 105	0.762	0.509	0.681	0.722	0.725	0.667	0.591	0.64	0.495	1.05	0.949	1.03	0.931	0.895	0.844	0.665	0.699	0.608	0.633	0.6
ABC-1	0.597	0.436	0.482	0.456	0.448	0.526	0.35	0.299	0.326	1.22	1.07	1.08	0.997	1.07		1.25	0.844	0.622	0.765	0.358
HCC-366	0.979	0.895	1.09	1.02	0.939	0.605	0.538		0.48	0.474	0.408	0.572	0.378	0.417	0.252	0.204	0.171		0.209	0.787
NCI-H1623	0.455	0.398	0.424	0.436	0.454	0.5	0.38	0.331	0.324											0.401
NCI-H2342	0.571	0.614	0.663	0.633	0.638	0.667	0.551	0.604	0.573						0.746	0.632	0.769	0.815	0.741	0.517
NCI-H2085	0.827	0.691	0.857	0.77	0.66	0.781	0.473	0.505	0.398	0.905	1.08	1.02	0.983	0.967	0.648	0.737	0.71	0.616	0.623	
BEN	0.3	0.287	0.3	0.286	0.342	0.278	0.306	0.286	0.266	0.984	1.09	1.11	1.12	1.02	0.448	0.564	0.617	0.555	0.571	0.294
LCLC-103H	0.461	0.487	0.472	0.432	0.535	0.504	0.437	0.411	0.531	0.957	0.941	1.05	1.06	1.16	0.565	0.884	0.782	0.733	0.761	0.521
NCI-H520	0.234	0.218	0.216		0.24	0.244	0.259	0.288	0.25	0.917	1.11	1.2	1.01	0.919	0.641	0.954	0.716	0.678	0.772	0.297

Cell Line	relative viability (Axitinib + OSI-027; first compound 0.005 µM)	relative viability (Axitinib + OSI-027; first compound 0.01581 µM)	relative viability (Axitinib + OSI-027; first compound 0.05 µM)	relative viability (Axitinib + OSI-027; first compound 0.1581 µM)	relative viability (Axitinib + OSI-027; first compound 0.5 µM)	relative viability ([1]; first compound 3.162 µM)	relative viability ([1]; first compound 10 µM)	relative viability ([1]; first compound 31.62 µM)	relative viability ([1]; first compound 100 µM)	relative viability (Bemcentinib + Alpelisib; first compound 0.04 µM)	relative viability (Bemcentinib + Alpelisib; first compound 0.1265 µM)	relative viability (Bemcentinib + Alpelisib; first compound 0.4 µM)	relative viability (Bemcentinib + Alpelisib; first compound 1.265 µM)	relative viability (Bemcentinib + Alpelisib; first compound 4 µM)	relative viability ([2]; first compound 1 µM)	relative viability ([2]; first compound 3.162 µM)	relative viability ([2]; first compound 10 µM)	relative viability ([2]; first compound 31.62 µM)	relative viability ([2]; first compound 100 µM)	relative viability ([1]; first compound 1 µM)
NCI-H1975	0.813	0.744	0.714	0.673	0.711	0.583	0.319	0.309	0.276	0.645	0.676	0.715	0.605	0.632	0.626	0.708	0.579	0.54	0.529	0.731
NCI-H1355	0.42	0.384	0.492	0.432	0.492	0.329	0.323	0.307	0.309	0.905	0.915	0.778	0.902	0.965	0.606	0.483	0.429	0.376	0.479	0.336
IA-LM										0.749	0.807	0.748	0.652	0.78		1.16		0.913	0.907	
H3255	0.651	0.512	0.612	0.599	0.544	0.608	0.504	0.521	0.572	0.63	0.71	0.713	0.61	0.703	0.682	0.818	0.788	0.497	0.703	0.552
NCI-H1915	0.615	0.653	0.65	0.64	0.756	0.628			0.584	1.15	1.13	1.1	1.07	1.08	0.456	0.527	0.418		0.543	0.567
NCI-H2023	0.437	0.446	0.396	0.337	0.468	0.3	0.204		0.213	0.678	0.602	0.72	0.528	0.587	0.726	0.577	0.545	0.334	0.464	0.305
NCI-H3122	0.959	0.946	1.01	0.709	1.02	1.26	1.01		0.786	0.447	0.825	0.829	0.819	0.82	0.878	0.978	1.03	0.828	0.898	1
NCI-H1650	0.706	0.513	0.721	0.64	1.01	0.532	0.43	0.494	0.411						0.527	0.596	0.332	0.382	0.373	
NCI-H1792	0.785	0.652	0.563	0.679	0.919	0.668	0.538	0.391	0.458	0.812	0.66	0.828	0.746	0.781						
NCI-H1648	0.258	0.238		0.245	0.249	0.277	0.234	0.235	0.252						0.523	0.473	0.378	0.347	0.421	0.226
ChaGo-K-1	0.547	0.505	0.67	0.554	0.591	0.479	0.53	0.321	0.482						0.574	0.836	0.788	0.524	0.771	0.374
Calu-6										0.928	1.04	1.01	1.04	1.07						
NCI-H1563	0.708	0.705	0.742	0.705	0.704	0.81	0.76	0.704	0.716	0.93	1.07	0.943	0.926	0.839						0.776
EBC-1										0.843	0.863	0.825	0.849	0.76						
NCI-H1703										0.29	0.382	0.39	0.312	0.426						
SW 900	0.646	0.536	0.562	0.564	0.699	0.648	0.502	0.342	0.357						0.527	0.277	0.432	0.36	0.377	0.399
NCI-H1299										1.1	1.07	1.09	1.1	1.08						
NCI-H522	0.765	0.665	0.572	0.857	0.647	0.624	0.668	0.761	0.777						0.777	0.992	0.993	0.759	0.919	0.439
A549										0.834	0.892	0.754	0.988	0.875						
